# From publication PMC8635542, “Pharmacokinetic study on the interaction between succinic acid and irbesartan in rats and its potential mechanism” (Pharmaceutical Biology, 2021)
# Test system: T1, CYP2C9
# T1 construct: gene Cyp2c6
# Details: diclofenac as substrate, NADPH-regenerating system (G-6-P, NADP+, G-6-PDH), MgCl2; succinic acid 0-100 μM
smiles,measurement,value
O=C(O)CCC(=O)O [succinic acid],IC50,13.9 µM
